Measured values published in patent US5800809A, “Non-crosslinked acrylic polymers and non-crosslinked anion exchange resins” (priority 1992, dated 1998).

Experiments:
[1] = rabbit, in vivo
[2] = rat, in vivo
[3] = set-up: species or system CD-1 mouse; details: mouse, in vivo
Procedure: (3) Micronucleus test on mice.
test on mice HBS-107 was given orally at a dosage of
was prepared after 24, 48 and 72 hours

polyacryloyloxyethyl-N,N-dimethylbenzyl ammonium salt [Example 1]
irritation (in words) [1]: not strong
urine volume, Na^+ and Cl^- [2]: Significant reduction
induction of micronucleus formation [3]: No induction
